This is an account of results in patent publication US20240158392A1 (Janssen Biotech, Inc., priority 2021, published 2024).

In assay [1] the target is T1, SIK2 (Homo sapiens, UniProt Q9H0K1). Put plainly: SIK2 Enzymatic Assay Version 1 (ADP Glo). In kind it is biochemical. The note with it: enzyme 0.6 nM, 160 μM ATP and 140 μM HDAC5tide (each 2× final concentration); 30 minutes pre-incubation, 4 hours; ADPGlo luminescence; read-out: SIK2 ADP Glo IC50 (μM) (Test Example 1). The essentials: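 Room-temperature ADP-Glo luminescence assay; SIK2 added at 0.6 nM (2× final) and preincubated with compound for 30 min. Reaction stopped with ADP-Glo Reagent for 40 min, then detection reagent for at least 30 min; no-peptide (ATP-only) wells served as negative control.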
T1 sequence (Q9H0K1 whole entry, species assumed): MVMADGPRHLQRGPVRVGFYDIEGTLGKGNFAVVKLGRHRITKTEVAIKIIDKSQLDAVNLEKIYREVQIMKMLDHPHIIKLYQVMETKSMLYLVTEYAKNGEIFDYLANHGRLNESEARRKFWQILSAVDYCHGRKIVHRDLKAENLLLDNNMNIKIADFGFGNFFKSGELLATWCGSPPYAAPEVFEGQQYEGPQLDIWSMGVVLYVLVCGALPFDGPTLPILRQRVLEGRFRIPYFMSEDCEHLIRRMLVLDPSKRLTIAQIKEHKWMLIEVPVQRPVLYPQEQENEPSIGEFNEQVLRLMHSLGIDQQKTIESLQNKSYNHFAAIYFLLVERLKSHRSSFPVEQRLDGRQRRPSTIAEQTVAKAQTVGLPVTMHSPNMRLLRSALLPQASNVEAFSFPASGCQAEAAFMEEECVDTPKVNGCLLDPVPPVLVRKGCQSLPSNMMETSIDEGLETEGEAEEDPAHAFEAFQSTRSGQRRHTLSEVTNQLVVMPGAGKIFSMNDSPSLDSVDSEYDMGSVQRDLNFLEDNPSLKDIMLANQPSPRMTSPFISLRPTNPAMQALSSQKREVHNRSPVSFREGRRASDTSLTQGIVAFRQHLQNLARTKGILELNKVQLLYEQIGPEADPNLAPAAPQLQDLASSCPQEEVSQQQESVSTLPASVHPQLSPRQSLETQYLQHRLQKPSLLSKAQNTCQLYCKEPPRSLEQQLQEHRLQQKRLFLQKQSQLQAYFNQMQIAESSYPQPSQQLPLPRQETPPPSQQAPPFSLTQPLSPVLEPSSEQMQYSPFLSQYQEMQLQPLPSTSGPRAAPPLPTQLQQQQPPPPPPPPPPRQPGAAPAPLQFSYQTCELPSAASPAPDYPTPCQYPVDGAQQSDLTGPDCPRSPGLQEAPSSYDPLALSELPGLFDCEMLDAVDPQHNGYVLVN

For assay [2], the target named is T1, SIK2. Put plainly: SIK2 Enzymatic Assay High Version 2 (High ATP). In kind it is biochemical. In short, it runs like this: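 At room temperature, enzyme (6 nM, 2× final) was preincubated with compound for 30 min, then 6 mM ATP and 400 μM HDAC5tide (both 2× final) were added for 2 h. ADP formed was measured by ADP-Glo Max (2 h reagent, 1 h detection) using luminescence.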

In the case of `N#Cc1cc(-c2ccn3nc(NC(=O)C4CC4)cc3c2)c(N2CC(O)C2)cn1` [Example 70, N-[5-[2-cyano-5-(3-hydroxyazetidin-1-yl)-4-pyridyl]pyrazolo[1,5-a]pyridin-2-yl]cyclopropanecarboxamide], the IC50 at SIK2 [1] was determined as 0.0208 µM; against SIK2 [2], 409 nM.
`CC(C)(O)CNc1cnc(C#N)cc1-c1ccn2nc(NC(=O)C3CC3)cc2c1` [Example 81, N-[5-[2-cyano-5-[(2-hydroxy-2-methyl-propyl)amino]-4-pyridyl]pyrazolo[1,5-a]pyridin-2-yl]cyclopropanecarboxamide]: the concentration for half-maximal inhibition (IC50) at SIK2 [1] worked out at 0.0154 µM; against SIK2 [2] it was 278 nM.
As for `N#Cc1cc(-c2ccn3nc(NC(=O)C4CC4)cc3c2)c(O[C@H]2C[C@H]3CC[C@@H](C2)N3)cn1` [Example 82, (3-endo)-N-(5-(5-(((1R,3r,5S)-8-azabicyclo[3.2.1]octan-3-yl)oxy)-2-cyanopyridin-4-yl)pyrazolo[1,5-a]pyridin-2-yl)cyclopropanecarboxamide], the 50% inhibitory concentration (IC50) at SIK2 [1] was found to be 0.000268 µM; against SIK2 [2], 5.07 nM.
As to `CN1[C@@H]2CC[C@H]1C[C@@H](COc1cnc(C#N)cc1-c1ccn3nc(NC(=O)C4CC4)cc3c1)C2` [Example 83, N-(5-(2-cyano-5-(((1R,3R,5S)-8-methyl-8-azabicyclo[3.2.1]octan-3-yl)methoxy)pyridin-4-yl)pyrazolo[1,5-a]pyridin-2-yl)cyclopropanecarboxamide], the IC50 at SIK2 [1] came to 0.00299 µM; at SIK2 [2] it was 56.7 nM.
Take `CN1CCC(Oc2cnc(C#N)cc2-c2ccn3nc(NC(=O)C4CC4)cc3c2)CC1` [Example 85, N-[5-[2-cyano-5-[(1-methyl-4-piperidyl)oxy]-4-pyridyl]pyrazolo[1,5-a]pyridin-2-yl]cyclopropanecarboxamide]: the IC50 on SIK2 [1] was 0.00256 µM; against SIK2 [2], 50.7 nM.
Regarding `N#Cc1cc(-c2ccn3nc(NC(=O)C4CC4)cc3c2)c(O[C@H]2CC[C@@H](O)CC2)cn1` [Example 86, N-(5-(2-cyano-5-(((1s,4s)-4-hydroxycyclohexyl)oxy)pyridin-4-yl)pyrazolo[1,5-a]pyridin-2-yl)cyclopropanecarboxamide], the IC50 at SIK2 [1] turned out to be 0.000204 µM; against SIK2 [2], 2.76 nM.
For the compound `CN1CCC[C@@H](Oc2cnc(C#N)cc2-c2ccn3nc(NC(=O)C4CC4)cc3c2)C1` [Example 88, (R)—N-(5-(2-cyano-5-((1-methylpiperidin-3-yl)oxy)pyridin-4-yl)pyrazolo[1,5-a]pyridin-2-yl)cyclopropanecarboxamide], the values for the IC50 on SIK2 [1] and at SIK2 [2] were 0.00298 µM and 51.1 nM, respectively.
`C[C@]1(O)CC[C@@H](Oc2cnc(C#N)cc2-c2ccn3nc(NC(=O)C4CC4)cc3c2)CC1` [Example 89]: the concentration for half-maximal inhibition (IC50) at SIK2 [1] turned out to be 0.000299 µM; at SIK2 [2] it was 3.04 nM.
As for `N#Cc1cc(-c2ccn3nc(NC(=O)C4CC4)cc3c2)c(OC2C[C@H]3COC[C@@H](C2)N3)cn1` (stereo partly drawn) [Example 92, (3-endo)-N-[5-[2-cyano-5-[[(1R,5S)-3-oxa-9-azabicyclo[3.3.1]nonan-7-yl]oxy]-4-pyridyl]pyrazolo[1,5-a]pyridin-2-yl]cyclopropanecarboxamide], the half-maximal inhibitory concentration (IC50) at SIK2 [1] was 0.00013 µM; against SIK2 [2], less than 0.838 nM.
The corresponding values for `CC1(C)CC(Oc2cnc(C#N)cc2-c2ccn3nc(NC(=O)C4CC4)cc3c2)CC(C)(C)N1` [Example 93, N-[5-[2-cyano-5-[(2,2,6,6-tetramethyl-4-piperidyl)oxy]-4-pyridyl]pyrazolo[1,5-a]pyridin-2-yl]cyclopropanecarboxamide] are 0.0359 µM and 1250 nM.
`C[C@@H](O)COc1cnc(C#N)cc1-c1ccn2nc(NC(=O)C3CC3)cc2c1` [Example 94, N-[5-[2-cyano-5-[(2R)-2-hydroxypropoxy]-4-pyridyl]pyrazolo[1,5-a]pyridin-2-yl]cyclopropanecarboxamide]: the IC50 was 0.00847 µM at SIK2 [1] and 167 nM on SIK2 [2].
The matching figures for `N#Cc1cc(-c2ccn3nc(NC(=O)C4CC4)cc3c2)c(O[C@@H]2CNC[C@H](C(F)(F)F)C2)cn1` [Example 95, N-[5-[2-cyano-5-[[(3S,5R)-5-(trifluoromethyl)-3-piperidyl]oxy]-4-pyridyl]pyrazolo[1,5-a]pyridin-2-yl]cyclopropanecarboxamide]: 0.000435 µM and 2.58 nM.
`N#Cc1cc(-c2ccn3nc(NC(=O)C4CC4)cc3c2)c(OC[C@@H](O)C(F)(F)F)cn1` [Example 96, N-[5-[2-cyano-5-[(2R)-3,3,3-trifluoro-2-hydroxy-propoxy]-4-pyridyl]pyrazolo[1,5-a]pyridin-2-yl]cyclopropanecarboxamide]: the IC50 at SIK2 [1] is 0.000912 µM; against SIK2 [2], 16 nM.
As to `N#Cc1cc(-c2ccn3nc(NC(=O)C4CC4)cc3c2)c(OC[C@H](O)C(F)(F)F)cn1` [Example 97, N-[5-[2-cyano-5-[(2S)-3,3,3-trifluoro-2-hydroxy-propoxy]-4-pyridyl]pyrazolo[1,5-a]pyridin-2-yl]cyclopropanecarboxamide], the 50% inhibitory concentration (IC50) on SIK2 [1] turned out to be 0.00609 µM; at SIK2 [2], 114 nM.
Take `CN[C@H]1C[C@@H](COc2cnc(C#N)cc2-c2ccn3nc(NC(=O)C4CC4)cc3c2)C1` [Example 98, N-(5-(2-cyano-5-(((1s,3s)-3-(methylamino)cyclobutyl)methoxy)pyridin-4-yl)pyrazolo[1,5-a]pyridin-2-yl)cyclopropanecarboxamide]: the concentration for half-maximal inhibition (IC50) is 0.000779 µM on SIK2 [1] and 13.8 nM against SIK2 [2].
Take `N#Cc1cc(-c2ccn3nc(NC(=O)C4CC4)cc3c2)c(OCC(O)(C(F)(F)F)C(F)(F)F)cn1` [Example 99, N-[5-[2-cyano-5-[3,3,3-trifluoro-2-hydroxy-2-(trifluoromethyl)propoxy]-4-pyridyl]pyrazolo[1,5-a]pyridin-2-yl]cyclopropanecarboxamide]: the values for the IC50 on SIK2 [1] and on SIK2 [2] were 0.00295 µM and 37.6 nM, respectively.
The corresponding values for `CN1CC[C@@H](COc2ccc(C#N)cc2-c2ccn3nc(NC(=O)C4CC4)cc3c2)C1` [Example 100, N-[5-[5-cyano-2-[[(3R)-1-methylpyrrolidin-3-yl]methoxy]phenyl]pyrazolo[1,5-a]pyridin-2-yl]cyclopropanecarboxamide] are 0.00573 µM and 105 nM.
Turning to `N#Cc1ccc(OC[C@H]2CNCCO2)c(-c2ccn3nc(NC(=O)C4CC4)cc3c2)c1` [Example 101, N-[5-[5-cyano-2-[[(2R)-morpholin-2-yl]methoxy]phenyl]pyrazolo[1,5-a]pyridin-2-yl]cyclopropanecarboxamide], the IC50 is 0.00263 µM on SIK2 [1] and 21.9 nM at SIK2 [2].
In the case of `CC1(C)CNC[C@H](COc2ccc(C#N)cc2-c2ccn3nc(NC(=O)C4CC4)cc3c2)O1` [Example 102, N-[5-[5-cyano-2-[[(2R)-6,6-dimethylmorpholin-2-yl]methoxy]phenyl]pyrazolo[1,5-a]pyridin-2-yl]cyclopropanecarboxamide], the 50% inhibitory concentration (IC50) is 0.000413 µM at SIK2 [1] and less than 0.838 nM against SIK2 [2].
For the compound `N#Cc1ccc(OC[C@@H]2CNCCO2)c(-c2ccn3nc(NC(=O)C4CC4)cc3c2)c1` [Example 103, N-[5-[5-cyano-2-[[(2S)-morpholin-2-yl]methoxy]phenyl]pyrazolo[1,5-a]pyridin-2-yl]cyclopropanecarboxamide], the IC50 was 0.00362 µM at SIK2 [1] and 34.5 nM against SIK2 [2].
